The nature of series [1]: microbe, parasite or virus in culture. The series is classed as functional. The following applies: Mycobacterium tuberculosis.
The nature of series [2]: growth suppression of PTEN-null colon cells, dose response, cell-based, HCT116 PTEN knockout (AID 1047).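 Further: HCT116 colon tumor cells with PTEN knocked out; cells exposed to compound for 60 hours before readout; potency for loss of cell viability measured by luminescence.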 The series is classed as functional.
A short description of series [3]: growth suppression of beta-catenin-knockout colon cells, dose response, cell-based, HCT116, human colon tumor (AID 1045).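 Further: HCT116 colon tumor cells with beta catenin knocked out; cells exposed to compound for 60 hours.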 Format: functional.
In a further series the target is Exodeoxyribonuclease V (Escherichia coli (strain K12), UniProt P04993+P07648+P08394). Nature of the series: E. coli RecBCD inhibitors, dose response, counter-screen for AddAB inhibitor project, absorbance, V66 E. coli, mutant T4 phage (AID 492957). Format: functional, cell-based, Escherichia coli str. K-12 substr. MG1655. (In general: A counterscreen serves to expose hits that act by an unwanted route or on another target.)

A short description of series [4]: Luminescence Cell-Based Dose Retest to Confirm Inhibitors of Cancer Stem Cells. [Related pubchem assays (depositor defined):AID2717, AID2721]. The series is classed as functional. The conditions noted are these: Homo sapiens.
For the next series, the target named is Beta-galactosidase (Escherichia coli, UniProt Q8VNN2). Nature of the series: beta-galactosidase enzyme inhibitors and activators, dose response, artefact control for CCR6 antagonist project, biochemical, E. coli enzyme, set 3 (AID 504712). Format: functional.
Chain of Beta-galactosidase (Q8VNN2 whole entry): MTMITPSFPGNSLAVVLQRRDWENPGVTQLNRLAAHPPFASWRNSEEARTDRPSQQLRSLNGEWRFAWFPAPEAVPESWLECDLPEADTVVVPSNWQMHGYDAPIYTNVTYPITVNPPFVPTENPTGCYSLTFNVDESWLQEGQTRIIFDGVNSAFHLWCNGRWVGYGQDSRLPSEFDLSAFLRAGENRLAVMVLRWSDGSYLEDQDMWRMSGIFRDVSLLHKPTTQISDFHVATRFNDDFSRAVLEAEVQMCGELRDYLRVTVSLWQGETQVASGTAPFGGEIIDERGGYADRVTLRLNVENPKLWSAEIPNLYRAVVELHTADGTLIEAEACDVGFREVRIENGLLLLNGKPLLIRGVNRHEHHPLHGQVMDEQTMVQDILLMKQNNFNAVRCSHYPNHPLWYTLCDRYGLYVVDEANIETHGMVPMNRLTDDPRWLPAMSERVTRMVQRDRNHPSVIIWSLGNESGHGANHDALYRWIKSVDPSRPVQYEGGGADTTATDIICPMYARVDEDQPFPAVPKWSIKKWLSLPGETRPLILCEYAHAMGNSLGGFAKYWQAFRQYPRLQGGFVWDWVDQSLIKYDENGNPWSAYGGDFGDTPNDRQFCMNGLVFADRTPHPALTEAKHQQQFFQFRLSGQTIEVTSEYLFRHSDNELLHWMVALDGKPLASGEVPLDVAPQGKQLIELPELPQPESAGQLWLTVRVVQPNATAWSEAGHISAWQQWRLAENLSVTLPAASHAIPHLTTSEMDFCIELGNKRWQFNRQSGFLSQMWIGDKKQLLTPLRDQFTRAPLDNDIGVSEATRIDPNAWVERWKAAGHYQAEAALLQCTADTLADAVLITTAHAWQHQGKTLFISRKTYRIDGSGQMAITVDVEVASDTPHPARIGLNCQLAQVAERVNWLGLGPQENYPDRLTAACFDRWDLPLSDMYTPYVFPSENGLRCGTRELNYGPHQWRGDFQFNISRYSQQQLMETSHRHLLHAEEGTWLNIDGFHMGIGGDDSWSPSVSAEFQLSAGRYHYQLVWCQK
Series [5] in a line: Counterscreen for AddAB inhibitors: absorbance-based bacterial cell-based high throughput dose response assay for inhibitors of bacterial viability. [Related pubchem assays (depositor defined):AID435030, AID449728, AID449731, AID488942, AID488955, AID488956]. Format: functional.
Series [6] can be described thus: Shn3 3'UTR reporter inhibitors, dose response, cell-based, Clone20 osteoblasts, firefly luciferase, cherry-picked (AID 624132).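 Further: firefly luciferase luminescence from reporter carrying the Shn3 3'UTR in osteoblasts.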 The series is classed as functional.
Series [7] is described as follows: HepG2 cell cytotoxicity, dose response, cytotoxicity control for Shn3 inhibitor project, CellTiter-Glo, cherry-picked (AID 624134). The series is classed as functional, cell-based. In general terms: ATP-based viability assays read luminescence as a measure of living cells.
Series [8] is described as follows: control 3'UTR Renilla luciferase suppression, dose response, counter-screen for Shn3 inhibitor project, cell-based, Clone20-Shn3RL, cherry-picked (AID 624133). Format: functional.
In series [9] the target is Sphingosine 1-phosphate receptor 1 (Homo sapiens, UniProt P21453). Nature of the series: Fluorescence-based counterscreen assay for S1P4 agonists: Cell-based dose response high throughput screening assay to identify agonists of the Sphingosine 1-Phosphate Receptor 1 (S1P1). [Related pubchem assays (depositor defined):AID1509, AID1523, AID1801, AID463107, AID463118, AID463119, AID463122, AID463123, AID463129, AID463225, AID504400, AID504460]. Format: functional.
Chain of Sphingosine 1-phosphate receptor 1 (P21453 whole entry): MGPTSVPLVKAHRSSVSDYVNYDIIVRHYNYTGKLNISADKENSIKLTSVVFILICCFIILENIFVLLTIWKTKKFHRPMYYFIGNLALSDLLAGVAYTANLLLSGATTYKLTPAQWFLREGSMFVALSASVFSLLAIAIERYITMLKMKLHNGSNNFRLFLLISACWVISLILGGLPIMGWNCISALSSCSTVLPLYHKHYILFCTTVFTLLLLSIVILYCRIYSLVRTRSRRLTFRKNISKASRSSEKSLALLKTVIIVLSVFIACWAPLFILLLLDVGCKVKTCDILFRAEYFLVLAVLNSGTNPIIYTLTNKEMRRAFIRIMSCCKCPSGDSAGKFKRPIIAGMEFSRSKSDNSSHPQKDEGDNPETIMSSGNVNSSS

The target of series [10] is Sphingosine 1-phosphate receptor 4 (Homo sapiens, UniProt O95977). The series can be described thus: Fluorescence dose response cell-based high throughput screening assay for agonists of the Sphingosine 1-Phosphate Receptor 4 (S1P4). [Related pubchem assays: 1509 (Primary screen.), 1523 (Confirmation screen in triplicates.)]. The series is classed as functional.
Chain of Sphingosine 1-phosphate receptor 4 (O95977 whole entry): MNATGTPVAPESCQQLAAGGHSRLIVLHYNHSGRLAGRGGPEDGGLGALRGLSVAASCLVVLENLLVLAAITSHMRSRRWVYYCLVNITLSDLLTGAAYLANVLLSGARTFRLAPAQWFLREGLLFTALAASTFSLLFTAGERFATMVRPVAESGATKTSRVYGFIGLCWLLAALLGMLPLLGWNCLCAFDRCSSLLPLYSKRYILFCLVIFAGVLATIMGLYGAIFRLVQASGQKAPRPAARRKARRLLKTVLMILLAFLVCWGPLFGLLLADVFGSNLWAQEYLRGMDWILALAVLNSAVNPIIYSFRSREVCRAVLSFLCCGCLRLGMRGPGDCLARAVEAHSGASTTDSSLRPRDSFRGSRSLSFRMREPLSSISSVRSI
The target in a further series is Cytochrome P450 2C19 (Homo sapiens, UniProt P33261). The series can be described thus: Cytochrome panel assay with activity outcomes. Panel member name: p450-cyp2c19 Compounds with AC50 equal or less than 10 uM are considered active. The series is classed as functional. The following applies: read-out: AC50.
Chain of Cytochrome P450 2C19 (P33261 whole entry): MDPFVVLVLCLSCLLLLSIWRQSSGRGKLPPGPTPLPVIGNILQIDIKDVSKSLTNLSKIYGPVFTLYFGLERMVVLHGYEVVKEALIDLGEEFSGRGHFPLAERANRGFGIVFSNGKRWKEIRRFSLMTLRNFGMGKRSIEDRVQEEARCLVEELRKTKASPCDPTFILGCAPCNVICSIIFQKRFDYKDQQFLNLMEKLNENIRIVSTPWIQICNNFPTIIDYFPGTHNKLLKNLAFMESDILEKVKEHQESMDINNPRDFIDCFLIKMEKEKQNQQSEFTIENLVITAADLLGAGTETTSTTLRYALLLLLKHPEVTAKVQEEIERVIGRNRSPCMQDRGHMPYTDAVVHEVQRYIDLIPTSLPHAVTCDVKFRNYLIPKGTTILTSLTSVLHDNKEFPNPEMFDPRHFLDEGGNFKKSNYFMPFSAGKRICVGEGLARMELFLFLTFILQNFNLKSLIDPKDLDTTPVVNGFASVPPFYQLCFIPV
In the next series the target is Cytochrome P450 3A4 (Homo sapiens, UniProt P08684).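 Further: CYP3A4 tested as one member of a cytochrome P450 panel screen.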
Chain of Cytochrome P450 3A4 (P08684 whole entry): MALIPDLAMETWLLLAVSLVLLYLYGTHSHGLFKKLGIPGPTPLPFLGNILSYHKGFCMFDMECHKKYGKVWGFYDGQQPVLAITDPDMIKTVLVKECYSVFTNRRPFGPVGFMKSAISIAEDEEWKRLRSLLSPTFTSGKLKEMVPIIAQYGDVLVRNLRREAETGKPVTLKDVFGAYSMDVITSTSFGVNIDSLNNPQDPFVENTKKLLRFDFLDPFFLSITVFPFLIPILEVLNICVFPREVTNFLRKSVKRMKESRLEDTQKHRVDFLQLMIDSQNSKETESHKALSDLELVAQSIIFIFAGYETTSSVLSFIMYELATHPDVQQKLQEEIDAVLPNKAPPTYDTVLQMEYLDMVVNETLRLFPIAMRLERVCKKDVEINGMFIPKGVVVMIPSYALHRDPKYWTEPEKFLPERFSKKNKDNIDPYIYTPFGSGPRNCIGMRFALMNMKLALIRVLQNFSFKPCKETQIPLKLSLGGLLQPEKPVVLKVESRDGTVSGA

3 compounds from ChEMBL document CHEMBL1201862, “PubChem BioAssay data set” (2004) can be followed below.

Active and inactive are the calls of the source.

What is called EC50 is the concentration that produces a half-maximal response. For orientation: IC50 means the concentration that gives 50% inhibition. One may read the AC50 as the midpoint of the concentration-response curve, whichever way the signal moves. Regarding `O=C(Nc1ccc([N+](=O)[O-])cc1)Nc1ccc(OC(F)F)c(Cl)c1`, the CC50 in series [1] is 2.83 µM (active). For the same compound, the half-maximal effective concentration (EC50) in [2] was 1.37 µM (active); in [3], 1.9 µM (active). Moreover, the IC50 on Exodeoxyribonuclease V is > 119 µM (inactive); on Beta-galactosidase, > 66.6 µM (inactive); in [5], > 119 µM (inactive). In addition, the AC50 in series [4] is 1.22 µM (active); in series [6] it was 3.59 µM (active); in series [7] it was 6.24 µM (active); in series [8], 4.77 µM (active).

On to `COc1ccc(C2CC(c3cccs3)=NN2c2ccccc2)cc1` (centres undefined), for which the 50% effective concentration (EC50) in [9] was 5.45 µM (active); in series [10], 12.3 µM (not active).

On to `O=C(c1ccco1)N1CCC2(CC1)CCN(c1ccccn1)CC2`, for which the AC50 at Cytochrome P450 2C19 is 31.6 µM (inconclusive); at Cytochrome P450 3A4 it was “inconclusive”.
